Measurements reported in publication doi:10.1101/2024.08.13.607785v1 (biorxiv, 2024).
Read-outs that look alike come from different tables or passages of the source. One block for each molecule: values may come before it.

Columns and labels:
Assay in all cases: biochemical
Design in all cases: species or system human cell line lysate
[1] = target: Calcium/calmodulin-dependent protein kinase type II subunit alpha ; CAMK2A ; Q9UQM7 (Homo sapiens, UniProt Q9UQM7)
[2] = target: Casein kinase II subunit alpha ; CSNK2A1 ; P68400 (Homo sapiens, UniProt P68400)
Sequence of Casein kinase II subunit alpha ; CSNK2A1 ; P68400 (P68400 whole entry, one chain of several): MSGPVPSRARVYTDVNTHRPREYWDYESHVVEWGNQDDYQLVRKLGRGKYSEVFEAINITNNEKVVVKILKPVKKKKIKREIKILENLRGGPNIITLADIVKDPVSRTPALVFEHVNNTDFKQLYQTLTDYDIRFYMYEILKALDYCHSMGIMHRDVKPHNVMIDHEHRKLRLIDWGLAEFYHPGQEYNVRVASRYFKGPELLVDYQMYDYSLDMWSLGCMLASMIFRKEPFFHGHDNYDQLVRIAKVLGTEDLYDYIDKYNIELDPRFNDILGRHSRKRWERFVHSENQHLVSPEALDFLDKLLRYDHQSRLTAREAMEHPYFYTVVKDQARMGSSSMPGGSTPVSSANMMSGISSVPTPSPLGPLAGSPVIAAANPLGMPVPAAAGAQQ

[3] = target: T1, Cyclin-G-associated kinase ; GAK ; O14976 (Homo sapiens, UniProt O14976)
T1 sequence (O14976 1-1311): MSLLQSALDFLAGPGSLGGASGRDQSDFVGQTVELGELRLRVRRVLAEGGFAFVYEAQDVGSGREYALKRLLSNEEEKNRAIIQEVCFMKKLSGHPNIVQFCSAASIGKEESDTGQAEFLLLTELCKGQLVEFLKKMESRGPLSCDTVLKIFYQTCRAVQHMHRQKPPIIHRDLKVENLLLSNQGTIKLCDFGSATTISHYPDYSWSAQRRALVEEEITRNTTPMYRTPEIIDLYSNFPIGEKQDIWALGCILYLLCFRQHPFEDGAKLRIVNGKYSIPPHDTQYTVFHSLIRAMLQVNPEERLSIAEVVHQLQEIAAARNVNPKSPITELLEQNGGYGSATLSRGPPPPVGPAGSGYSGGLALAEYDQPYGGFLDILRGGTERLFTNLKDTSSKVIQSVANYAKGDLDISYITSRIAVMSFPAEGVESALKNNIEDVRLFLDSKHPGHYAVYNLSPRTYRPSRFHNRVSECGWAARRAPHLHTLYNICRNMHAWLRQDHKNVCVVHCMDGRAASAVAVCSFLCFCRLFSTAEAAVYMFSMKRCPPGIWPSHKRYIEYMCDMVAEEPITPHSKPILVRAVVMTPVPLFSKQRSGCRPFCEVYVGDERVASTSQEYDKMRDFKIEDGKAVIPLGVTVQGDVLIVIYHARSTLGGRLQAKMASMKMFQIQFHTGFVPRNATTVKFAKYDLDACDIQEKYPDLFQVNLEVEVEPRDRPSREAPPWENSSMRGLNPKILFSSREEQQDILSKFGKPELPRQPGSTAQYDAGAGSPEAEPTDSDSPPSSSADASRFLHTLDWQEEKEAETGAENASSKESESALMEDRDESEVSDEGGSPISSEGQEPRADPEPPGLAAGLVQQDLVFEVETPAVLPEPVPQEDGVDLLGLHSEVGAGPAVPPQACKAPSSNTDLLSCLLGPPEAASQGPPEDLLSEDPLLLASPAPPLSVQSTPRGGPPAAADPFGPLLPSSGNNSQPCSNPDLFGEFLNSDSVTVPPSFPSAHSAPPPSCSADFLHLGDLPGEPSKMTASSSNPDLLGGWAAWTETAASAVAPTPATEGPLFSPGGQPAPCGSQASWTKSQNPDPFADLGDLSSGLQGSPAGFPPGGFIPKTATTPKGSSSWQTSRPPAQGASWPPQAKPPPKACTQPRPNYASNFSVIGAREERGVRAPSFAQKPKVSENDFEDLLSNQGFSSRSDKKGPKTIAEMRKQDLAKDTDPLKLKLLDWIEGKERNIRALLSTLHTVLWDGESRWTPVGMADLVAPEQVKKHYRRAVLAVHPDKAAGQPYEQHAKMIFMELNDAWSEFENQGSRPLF

[4] = target: Misshapen-like kinase 1 ; MINK1 ; Q8N4C8 (Homo sapiens, UniProt Q8N4C8)
Sequence of Misshapen-like kinase 1 ; MINK1 ; Q8N4C8 (Q8N4C8 whole entry): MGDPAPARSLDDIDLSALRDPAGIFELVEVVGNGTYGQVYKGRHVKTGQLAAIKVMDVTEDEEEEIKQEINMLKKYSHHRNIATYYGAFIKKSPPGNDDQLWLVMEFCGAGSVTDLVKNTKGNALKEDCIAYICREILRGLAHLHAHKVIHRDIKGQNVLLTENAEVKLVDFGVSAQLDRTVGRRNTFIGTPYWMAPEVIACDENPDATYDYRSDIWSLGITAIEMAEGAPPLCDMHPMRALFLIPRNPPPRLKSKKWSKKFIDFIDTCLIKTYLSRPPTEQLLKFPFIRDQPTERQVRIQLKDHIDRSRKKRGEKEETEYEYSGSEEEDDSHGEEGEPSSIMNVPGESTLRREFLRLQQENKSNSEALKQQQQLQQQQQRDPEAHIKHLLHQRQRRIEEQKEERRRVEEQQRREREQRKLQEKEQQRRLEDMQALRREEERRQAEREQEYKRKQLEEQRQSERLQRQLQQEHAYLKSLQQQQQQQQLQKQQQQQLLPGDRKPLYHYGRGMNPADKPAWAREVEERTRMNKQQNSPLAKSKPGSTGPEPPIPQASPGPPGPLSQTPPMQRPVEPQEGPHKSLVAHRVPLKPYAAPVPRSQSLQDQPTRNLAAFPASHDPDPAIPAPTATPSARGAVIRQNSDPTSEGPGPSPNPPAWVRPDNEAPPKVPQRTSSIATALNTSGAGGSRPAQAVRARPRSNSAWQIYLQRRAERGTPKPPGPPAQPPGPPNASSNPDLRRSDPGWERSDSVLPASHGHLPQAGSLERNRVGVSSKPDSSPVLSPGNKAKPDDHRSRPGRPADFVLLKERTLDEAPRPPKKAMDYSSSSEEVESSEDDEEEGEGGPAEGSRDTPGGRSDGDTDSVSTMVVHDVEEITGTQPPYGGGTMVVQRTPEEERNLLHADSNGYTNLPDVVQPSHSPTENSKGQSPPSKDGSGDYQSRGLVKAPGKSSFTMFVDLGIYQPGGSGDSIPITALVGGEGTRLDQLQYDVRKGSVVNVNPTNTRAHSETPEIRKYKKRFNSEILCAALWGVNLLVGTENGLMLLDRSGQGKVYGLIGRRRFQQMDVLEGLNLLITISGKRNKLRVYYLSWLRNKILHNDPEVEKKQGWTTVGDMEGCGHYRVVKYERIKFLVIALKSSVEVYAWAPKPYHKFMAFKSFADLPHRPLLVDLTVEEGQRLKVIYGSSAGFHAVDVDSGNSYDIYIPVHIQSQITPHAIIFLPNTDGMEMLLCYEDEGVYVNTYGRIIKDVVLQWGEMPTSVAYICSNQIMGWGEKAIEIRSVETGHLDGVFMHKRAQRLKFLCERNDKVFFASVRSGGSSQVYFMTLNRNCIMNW

[5] = target: Mitogen-activated protein kinase kinase kinase 11 ; MAP3K11 ; Q16584 (Homo sapiens, UniProt Q16584)
[6] = target: Mitogen-activated protein kinase kinase kinase 9 ; MAP3K9 ; P80192 (Homo sapiens, UniProt P80192)
[7] = target: Mitogen-activated protein kinase kinase kinase kinase 5 ; MAP4K5 ; Q9Y4K4 (Homo sapiens, UniProt Q9Y4K4)
[8] = target: Phosphatidylinositol 4-kinase alpha ; PI4KA ; P42356 (Homo sapiens, UniProt P42356)
[9] = target: Receptor-type tyrosine-protein kinase FLT3 ; FLT3 ; P36888 (Homo sapiens, UniProt P36888)
[10] = target: Serine/threonine-protein kinase BRSK1 ; BRSK1 ; Q8TDC3 (Homo sapiens, UniProt Q8TDC3)
[11] = target: Serine/threonine-protein kinase Nek9 ; NEK9 ; Q8TD19 (Homo sapiens, UniProt Q8TD19)
Sequence of Serine/threonine-protein kinase Nek9 ; NEK9 ; Q8TD19 (Q8TD19 whole entry, one chain of several): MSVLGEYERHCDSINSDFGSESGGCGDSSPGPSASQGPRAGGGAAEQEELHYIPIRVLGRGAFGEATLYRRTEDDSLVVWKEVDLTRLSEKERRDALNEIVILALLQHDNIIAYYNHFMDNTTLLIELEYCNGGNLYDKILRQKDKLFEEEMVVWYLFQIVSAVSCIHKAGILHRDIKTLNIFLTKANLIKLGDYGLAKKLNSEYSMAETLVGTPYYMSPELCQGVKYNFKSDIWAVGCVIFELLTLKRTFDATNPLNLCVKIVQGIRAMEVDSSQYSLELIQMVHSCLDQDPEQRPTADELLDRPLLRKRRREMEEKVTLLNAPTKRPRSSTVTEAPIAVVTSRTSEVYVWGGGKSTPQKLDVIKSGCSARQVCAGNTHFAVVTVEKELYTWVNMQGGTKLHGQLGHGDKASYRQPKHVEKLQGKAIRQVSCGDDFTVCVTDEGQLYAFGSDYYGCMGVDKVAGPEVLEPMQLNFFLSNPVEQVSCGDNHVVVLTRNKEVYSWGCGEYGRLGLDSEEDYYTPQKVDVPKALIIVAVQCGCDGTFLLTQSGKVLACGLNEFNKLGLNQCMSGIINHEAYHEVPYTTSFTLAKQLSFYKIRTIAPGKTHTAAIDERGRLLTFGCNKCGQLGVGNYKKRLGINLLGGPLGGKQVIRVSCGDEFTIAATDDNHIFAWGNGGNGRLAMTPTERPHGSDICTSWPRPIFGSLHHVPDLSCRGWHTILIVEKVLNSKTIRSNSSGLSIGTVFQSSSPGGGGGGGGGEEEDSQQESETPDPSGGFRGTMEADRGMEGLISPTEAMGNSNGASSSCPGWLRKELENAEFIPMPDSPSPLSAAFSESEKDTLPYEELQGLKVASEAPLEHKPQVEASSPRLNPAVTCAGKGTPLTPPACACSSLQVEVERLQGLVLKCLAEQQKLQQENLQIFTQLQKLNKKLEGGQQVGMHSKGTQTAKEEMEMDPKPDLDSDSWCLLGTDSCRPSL

[12] = target: Serine/threonine-protein kinase ULK1 ; ULK1 ; O75385 (Homo sapiens, UniProt O75385)
[13] = target: Tyrosine-protein kinase HCK ; HCK ; P08631 (Homo sapiens, UniProt P08631)
Sequence of Tyrosine-protein kinase HCK ; HCK ; P08631 (P08631 whole entry): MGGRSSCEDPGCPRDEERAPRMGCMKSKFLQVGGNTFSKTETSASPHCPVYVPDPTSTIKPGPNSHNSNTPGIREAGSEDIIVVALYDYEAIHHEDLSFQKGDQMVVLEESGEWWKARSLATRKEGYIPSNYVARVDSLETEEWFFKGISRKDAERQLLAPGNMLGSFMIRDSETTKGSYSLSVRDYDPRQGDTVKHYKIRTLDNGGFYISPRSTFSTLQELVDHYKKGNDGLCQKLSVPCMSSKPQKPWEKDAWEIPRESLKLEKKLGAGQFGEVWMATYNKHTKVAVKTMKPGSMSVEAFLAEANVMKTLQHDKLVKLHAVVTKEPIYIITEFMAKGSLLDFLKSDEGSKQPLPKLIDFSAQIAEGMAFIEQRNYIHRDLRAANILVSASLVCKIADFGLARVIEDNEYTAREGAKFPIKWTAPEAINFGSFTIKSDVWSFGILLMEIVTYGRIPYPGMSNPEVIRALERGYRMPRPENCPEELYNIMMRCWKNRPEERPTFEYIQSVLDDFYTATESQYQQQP

[14] = target: Vascular endothelial growth factor receptor 3 ; FLT4 ; P35916 (Homo sapiens, UniProt P35916)
Sequence of Vascular endothelial growth factor receptor 3 ; FLT4 ; P35916 (P35916 whole entry): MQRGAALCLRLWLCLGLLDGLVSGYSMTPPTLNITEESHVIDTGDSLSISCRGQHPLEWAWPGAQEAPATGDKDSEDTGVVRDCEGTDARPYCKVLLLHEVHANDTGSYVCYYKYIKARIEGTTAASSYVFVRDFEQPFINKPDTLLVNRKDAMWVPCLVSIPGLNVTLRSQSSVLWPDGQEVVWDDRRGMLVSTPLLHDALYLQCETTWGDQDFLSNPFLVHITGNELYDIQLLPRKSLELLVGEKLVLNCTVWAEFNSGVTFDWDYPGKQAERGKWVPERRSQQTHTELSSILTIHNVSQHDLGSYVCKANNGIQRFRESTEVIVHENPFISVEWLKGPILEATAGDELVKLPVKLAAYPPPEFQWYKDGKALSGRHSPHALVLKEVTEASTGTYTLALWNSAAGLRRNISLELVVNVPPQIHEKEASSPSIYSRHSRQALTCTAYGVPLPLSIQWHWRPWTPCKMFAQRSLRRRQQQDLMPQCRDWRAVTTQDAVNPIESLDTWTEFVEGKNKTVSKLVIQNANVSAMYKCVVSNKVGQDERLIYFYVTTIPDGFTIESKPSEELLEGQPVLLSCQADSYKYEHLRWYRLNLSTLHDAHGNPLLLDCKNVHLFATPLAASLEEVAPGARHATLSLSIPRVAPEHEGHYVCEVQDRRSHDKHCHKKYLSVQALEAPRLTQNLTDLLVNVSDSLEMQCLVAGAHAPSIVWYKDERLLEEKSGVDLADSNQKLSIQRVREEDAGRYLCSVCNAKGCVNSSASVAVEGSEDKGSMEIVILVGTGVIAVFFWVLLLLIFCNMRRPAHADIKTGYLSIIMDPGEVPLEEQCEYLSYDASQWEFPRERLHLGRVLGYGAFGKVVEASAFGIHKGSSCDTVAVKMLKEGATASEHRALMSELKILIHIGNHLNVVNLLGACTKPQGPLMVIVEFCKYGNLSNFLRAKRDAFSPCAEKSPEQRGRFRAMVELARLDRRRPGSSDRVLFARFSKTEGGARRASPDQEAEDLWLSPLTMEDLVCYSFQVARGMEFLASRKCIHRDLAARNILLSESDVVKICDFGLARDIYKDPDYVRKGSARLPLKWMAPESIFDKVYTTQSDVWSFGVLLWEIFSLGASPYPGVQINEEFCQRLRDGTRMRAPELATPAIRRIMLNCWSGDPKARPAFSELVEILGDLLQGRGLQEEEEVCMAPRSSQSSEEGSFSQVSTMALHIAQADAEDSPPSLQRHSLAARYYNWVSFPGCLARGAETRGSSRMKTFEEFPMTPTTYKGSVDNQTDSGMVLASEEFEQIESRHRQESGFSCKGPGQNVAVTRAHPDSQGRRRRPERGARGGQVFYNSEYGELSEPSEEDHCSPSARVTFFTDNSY

[15] = read-out: BAY-1143572 (10 µM) / %Intensity relative to DMSO
[16] = read-out: BAY-1251152 (10 µM) / %Intensity relative to DMSO

Sequence of Calcium/calmodulin-dependent protein kinase type II subunit alpha ; CAMK2A ; Q9UQM7 (Q9UQM7 whole entry, one chain of several): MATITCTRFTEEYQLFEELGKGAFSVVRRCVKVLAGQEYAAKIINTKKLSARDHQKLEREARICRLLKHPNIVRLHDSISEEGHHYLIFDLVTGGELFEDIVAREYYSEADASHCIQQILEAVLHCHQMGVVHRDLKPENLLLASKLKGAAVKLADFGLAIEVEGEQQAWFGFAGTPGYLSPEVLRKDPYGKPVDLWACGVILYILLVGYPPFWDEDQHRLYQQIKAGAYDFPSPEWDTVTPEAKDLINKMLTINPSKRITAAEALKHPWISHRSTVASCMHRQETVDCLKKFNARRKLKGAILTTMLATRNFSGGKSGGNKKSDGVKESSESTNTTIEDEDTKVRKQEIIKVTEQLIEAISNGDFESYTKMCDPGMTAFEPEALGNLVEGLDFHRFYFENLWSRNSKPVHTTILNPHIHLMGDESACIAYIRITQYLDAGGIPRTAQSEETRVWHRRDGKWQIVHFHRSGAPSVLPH

- remaining activity at 10 µM [1, 15]: 130%
- remaining activity at 10 µM [2, 15]: 110%
- remaining activity at 10 µM [3, 15]: 96.6%
- remaining activity at 10 µM [4, 15]: 72.9%
- remaining activity at 10 µM [5, 15]: 105%
- remaining activity at 10 µM [6, 15]: 87.2%
- remaining activity at 10 µM [7, 15]: 97.6%
- remaining activity at 10 µM [8, 15]: 96.8%
- remaining activity at 10 µM [9, 15]: 70.5%
- remaining activity at 10 µM [10, 15]: 95.3%
- remaining activity at 10 µM [12, 15]: 132%
- remaining activity at 10 µM [13, 15]: 108%
- remaining activity at 10 µM [14, 15]: 115%
SMILES: COc1cc(F)ccc1-c1ncnc(Nc2cccc(C[S@](C)(=N)=O)c2)n1 [BAY-1143572]
- remaining activity at 10 µM [11, 15]: 110%

- remaining activity at 10 µM [1, 16]: 115%
- remaining activity at 10 µM [2, 16]: 105%
- remaining activity at 10 µM [3, 16]: 100%
- remaining activity at 10 µM [4, 16]: 54.1%
- remaining activity at 10 µM [5, 16]: 81%
- remaining activity at 10 µM [6, 16]: 104%
- remaining activity at 10 µM [7, 16]: 55.3%
- remaining activity at 10 µM [8, 16]: 100%
- remaining activity at 10 µM [9, 16]: 84.2%
- remaining activity at 10 µM [10, 16]: 96%
- remaining activity at 10 µM [12, 16]: 145%
- remaining activity at 10 µM [13, 16]: 107%
- remaining activity at 10 µM [14, 16]: 104%
SMILES: COc1cc(F)ccc1-c1cc(Nc2cc(CS(C)(=N)=O)ccn2)ncc1F (stereo not shown) [BAY-1251152]
- remaining activity at 10 µM [11, 16]: 110%
